In patent publication US10844077B2, “Thiazolyl-containing compounds for treating proliferative diseases” (Dana-Farber Cancer Institute, Inc., priority 2014, dated 2020):

Legend:
Assay type in all cases: binding
broad panel of kinases [1] = target: broad panel of kinases (Homo sapiens, UniProt P21127); conditions: CDC2L1; 1 μM
broad panel of kinases [2] = target: broad panel of kinases (Homo sapiens, UniProt Q9BXA7); conditions: TSSK1B; 1 μM
broad panel of kinases [3] = target: broad panel of kinases (Homo sapiens, UniProt Q9H2G2); conditions: SLK; 1 μM
broad panel of kinases [4] = target: broad panel of kinases (Homo sapiens, UniProt Q16584); conditions: MLK3; 1 μM
broad panel of kinases [5] = target: broad panel of kinases (Homo sapiens, UniProt P51956); conditions: NEK3; 1 μM
broad panel of kinases [6] = target: broad panel of kinases (Homo sapiens, UniProt Q02763); conditions: TIE2; 1 μM
broad panel of kinases [7] = target: broad panel of kinases (Homo sapiens, UniProt P80192); conditions: MLK1; 1 μM
broad panel of kinases [8] = target: broad panel of kinases (Homo sapiens, UniProt Q15759); conditions: p38-beta; 1 μM
broad panel of kinases [9] = target: broad panel of kinases (Homo sapiens, UniProt Q13557); conditions: CAMK2D; 1 μM
broad panel of kinases [10] = target: broad panel of kinases (Homo sapiens, UniProt P17612); conditions: PKAC-alpha; 1 μM
broad panel of kinases [11] = target: broad panel of kinases (Homo sapiens, UniProt O00444); conditions: PLK4; 1 μM
broad panel of kinases [12] = target: broad panel of kinases (Homo sapiens, UniProt P08581, M1250T); conditions: MET(M1250T); 1 μM
broad panel of kinases [13] = target: broad panel of kinases (Homo sapiens, UniProt O75914); conditions: PAK3; 1 μM
broad panel of kinases [14] = target: broad panel of kinases (Homo sapiens, UniProt P46734); conditions: MEK3; 1 μM
broad panel of kinases [15] = target: broad panel of kinases (Homo sapiens, UniProt Q8TD19); conditions: NEK9; 1 μM
broad panel of kinases [16] = target: broad panel of kinases (Homo sapiens, UniProt P51955); conditions: NEK2; 1 μM
broad panel of kinases [17] = target: broad panel of kinases (Homo sapiens, UniProt P49840); conditions: GSK3A; 1 μM
broad panel of kinases [18] = target: broad panel of kinases (Homo sapiens, UniProt Q86V86); conditions: PIM3; 1 μM
broad panel of kinases [19] = target: broad panel of kinases (Homo sapiens, UniProt Q9HBH9); conditions: MKNK2; 1 μM
broad panel of kinases [20] = target: broad panel of kinases (Homo sapiens, UniProt P53350); conditions: PLK1; 1 μM
broad panel of kinases [21] = target: broad panel of kinases (Homo sapiens, UniProt P27361); conditions: ERK1; 1 μM
broad panel of kinases [22] = target: broad panel of kinases (Homo sapiens, UniProt P49336); conditions: CDK8; 1 μM
broad panel of kinases [23] = target: broad panel of kinases (Homo sapiens, UniProt O60285); conditions: ARK5; 1 μM
broad panel of kinases [24] = target: broad panel of kinases (Homo sapiens, UniProt P51617); conditions: IRAK1; 1 μM
broad panel of kinases [25] = target: broad panel of kinases (Homo sapiens, UniProt P30530); conditions: AXL; 1 μM
broad panel of kinases [26] = target: broad panel of kinases (Homo sapiens, UniProt Q8IW41)
broad panel of kinases [27] = target: broad panel of kinases (Homo sapiens, UniProt O60331); conditions: PIP5K1C; 1 μM
broad panel of kinases [28] = target: broad panel of kinases (Homo sapiens, UniProt Q9NY57); conditions: YANK2; 1 μM
broad panel of kinases [29] = target: broad panel of kinases (Homo sapiens, UniProt Q96RR4); conditions: CAMKK2; 1 μM
broad panel of kinases [30] = target: broad panel of kinases (Homo sapiens, UniProt P53667); conditions: LIMK1; 1 μM
broad panel of kinases [31] = target: broad panel of kinases (Homo sapiens, UniProt O75747); conditions: PIK3C2G; 1 μM
broad panel of kinases [32] = target: broad panel of kinases (Homo sapiens, UniProt P28482); conditions: ERK2; 1 μM
broad panel of kinases [33] = target: broad panel of kinases (Homo sapiens, UniProt O95382); conditions: ASK2; 1 μM
broad panel of kinases [34] = target: broad panel of kinases (Homo sapiens, UniProt P00533, L858R/T790M); conditions: EGFR(L858R, T790M); 1 μM
broad panel of kinases [35] = target: broad panel of kinases (Homo sapiens, UniProt Q8N568); conditions: DCAMKL2; 1 μM
broad panel of kinases [36] = target: broad panel of kinases (Homo sapiens, UniProt P49137)
broad panel of kinases [37] = target: broad panel of kinases (Homo sapiens, UniProt Q9UEW8); conditions: STK39; 1 μM

Chain of broad panel of kinases (Homo sapiens, UniProt P28482) (P28482 2-360 limits assumed): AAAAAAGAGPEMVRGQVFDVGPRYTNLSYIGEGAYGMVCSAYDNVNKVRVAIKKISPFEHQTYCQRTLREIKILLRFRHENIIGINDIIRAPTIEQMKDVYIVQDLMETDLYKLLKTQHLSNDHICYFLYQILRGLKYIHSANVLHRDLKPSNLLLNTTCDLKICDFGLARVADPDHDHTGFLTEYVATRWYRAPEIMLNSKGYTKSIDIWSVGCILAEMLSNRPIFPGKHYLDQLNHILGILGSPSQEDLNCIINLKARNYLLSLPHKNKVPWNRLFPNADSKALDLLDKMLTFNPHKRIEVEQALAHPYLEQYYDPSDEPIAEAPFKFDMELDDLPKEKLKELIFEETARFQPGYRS
Chain of broad panel of kinases (Homo sapiens, UniProt P27361) (P27361 2-379 limits assumed): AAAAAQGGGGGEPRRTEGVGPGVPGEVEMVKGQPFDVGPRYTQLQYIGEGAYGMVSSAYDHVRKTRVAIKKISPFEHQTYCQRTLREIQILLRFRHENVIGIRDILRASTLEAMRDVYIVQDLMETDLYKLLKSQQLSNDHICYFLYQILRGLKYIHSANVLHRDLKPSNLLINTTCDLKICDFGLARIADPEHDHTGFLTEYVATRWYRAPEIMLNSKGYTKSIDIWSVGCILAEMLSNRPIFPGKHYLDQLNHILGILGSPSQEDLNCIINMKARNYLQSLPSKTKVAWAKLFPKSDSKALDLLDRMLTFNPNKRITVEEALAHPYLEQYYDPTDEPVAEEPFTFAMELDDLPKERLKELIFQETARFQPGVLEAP
Chain of broad panel of kinases (Homo sapiens, UniProt P00533, L858R/T790M) (P00533 25-1210 T790M/L858R limits assumed): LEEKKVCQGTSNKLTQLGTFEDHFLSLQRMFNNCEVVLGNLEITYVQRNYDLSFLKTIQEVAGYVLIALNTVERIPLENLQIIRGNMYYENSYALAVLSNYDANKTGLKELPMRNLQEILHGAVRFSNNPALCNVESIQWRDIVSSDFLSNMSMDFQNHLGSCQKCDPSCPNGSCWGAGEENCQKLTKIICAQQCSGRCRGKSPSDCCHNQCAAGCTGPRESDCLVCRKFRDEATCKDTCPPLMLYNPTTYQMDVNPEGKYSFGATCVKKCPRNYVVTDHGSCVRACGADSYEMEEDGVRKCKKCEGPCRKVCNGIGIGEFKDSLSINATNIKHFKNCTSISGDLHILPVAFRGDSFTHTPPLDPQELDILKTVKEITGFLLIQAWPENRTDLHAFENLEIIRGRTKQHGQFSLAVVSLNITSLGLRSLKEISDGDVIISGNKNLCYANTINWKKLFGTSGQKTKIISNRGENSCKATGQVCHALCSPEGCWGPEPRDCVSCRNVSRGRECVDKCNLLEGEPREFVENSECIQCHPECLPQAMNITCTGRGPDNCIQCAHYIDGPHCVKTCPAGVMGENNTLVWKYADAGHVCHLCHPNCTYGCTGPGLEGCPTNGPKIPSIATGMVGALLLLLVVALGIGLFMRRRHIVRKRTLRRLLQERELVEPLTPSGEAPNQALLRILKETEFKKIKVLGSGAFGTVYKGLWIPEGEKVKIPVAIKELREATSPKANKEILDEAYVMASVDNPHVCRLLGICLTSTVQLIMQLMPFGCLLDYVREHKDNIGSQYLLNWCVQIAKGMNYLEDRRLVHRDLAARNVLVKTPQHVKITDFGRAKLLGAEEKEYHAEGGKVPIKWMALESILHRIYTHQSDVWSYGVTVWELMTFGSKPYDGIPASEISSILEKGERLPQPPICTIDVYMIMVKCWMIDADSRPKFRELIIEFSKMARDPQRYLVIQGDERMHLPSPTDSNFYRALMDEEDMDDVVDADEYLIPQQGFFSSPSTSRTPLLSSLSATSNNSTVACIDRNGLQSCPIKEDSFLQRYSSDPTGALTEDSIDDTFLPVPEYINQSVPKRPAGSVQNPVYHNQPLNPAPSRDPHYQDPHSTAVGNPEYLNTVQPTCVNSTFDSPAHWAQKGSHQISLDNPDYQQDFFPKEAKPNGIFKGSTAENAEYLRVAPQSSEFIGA
Chain of broad panel of kinases (Homo sapiens, UniProt Q02763) (Q02763 23-1124 limits assumed): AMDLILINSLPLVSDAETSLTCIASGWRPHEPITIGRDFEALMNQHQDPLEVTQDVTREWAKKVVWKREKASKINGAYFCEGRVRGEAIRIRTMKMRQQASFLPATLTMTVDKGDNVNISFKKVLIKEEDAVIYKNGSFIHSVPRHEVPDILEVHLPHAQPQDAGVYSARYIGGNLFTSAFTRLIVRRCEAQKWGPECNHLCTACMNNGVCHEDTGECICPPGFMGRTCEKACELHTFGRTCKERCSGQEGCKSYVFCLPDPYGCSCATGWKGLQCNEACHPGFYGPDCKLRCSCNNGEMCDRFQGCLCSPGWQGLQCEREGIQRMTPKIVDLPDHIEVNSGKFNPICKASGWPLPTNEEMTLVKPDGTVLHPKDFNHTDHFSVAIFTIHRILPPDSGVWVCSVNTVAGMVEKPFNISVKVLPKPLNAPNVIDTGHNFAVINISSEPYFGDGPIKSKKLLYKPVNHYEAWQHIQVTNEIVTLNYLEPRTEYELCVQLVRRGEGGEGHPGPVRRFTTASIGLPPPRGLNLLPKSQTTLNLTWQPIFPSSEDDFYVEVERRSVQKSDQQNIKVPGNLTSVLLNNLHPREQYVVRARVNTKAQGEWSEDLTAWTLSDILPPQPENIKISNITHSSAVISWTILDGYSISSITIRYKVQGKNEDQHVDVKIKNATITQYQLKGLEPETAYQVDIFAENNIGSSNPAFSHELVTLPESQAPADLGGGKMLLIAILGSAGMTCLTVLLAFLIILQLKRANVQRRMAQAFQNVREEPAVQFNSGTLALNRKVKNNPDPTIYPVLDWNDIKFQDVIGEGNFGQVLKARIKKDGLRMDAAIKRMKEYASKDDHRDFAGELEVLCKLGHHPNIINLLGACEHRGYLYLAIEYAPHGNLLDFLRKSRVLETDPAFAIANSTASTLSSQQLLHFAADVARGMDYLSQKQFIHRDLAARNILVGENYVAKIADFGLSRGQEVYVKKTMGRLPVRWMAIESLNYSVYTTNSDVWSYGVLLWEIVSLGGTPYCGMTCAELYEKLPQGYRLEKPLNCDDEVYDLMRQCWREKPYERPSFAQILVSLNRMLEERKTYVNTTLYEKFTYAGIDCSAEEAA
Chain of broad panel of kinases (Homo sapiens, UniProt P53350) (P53350 2-603 limits assumed): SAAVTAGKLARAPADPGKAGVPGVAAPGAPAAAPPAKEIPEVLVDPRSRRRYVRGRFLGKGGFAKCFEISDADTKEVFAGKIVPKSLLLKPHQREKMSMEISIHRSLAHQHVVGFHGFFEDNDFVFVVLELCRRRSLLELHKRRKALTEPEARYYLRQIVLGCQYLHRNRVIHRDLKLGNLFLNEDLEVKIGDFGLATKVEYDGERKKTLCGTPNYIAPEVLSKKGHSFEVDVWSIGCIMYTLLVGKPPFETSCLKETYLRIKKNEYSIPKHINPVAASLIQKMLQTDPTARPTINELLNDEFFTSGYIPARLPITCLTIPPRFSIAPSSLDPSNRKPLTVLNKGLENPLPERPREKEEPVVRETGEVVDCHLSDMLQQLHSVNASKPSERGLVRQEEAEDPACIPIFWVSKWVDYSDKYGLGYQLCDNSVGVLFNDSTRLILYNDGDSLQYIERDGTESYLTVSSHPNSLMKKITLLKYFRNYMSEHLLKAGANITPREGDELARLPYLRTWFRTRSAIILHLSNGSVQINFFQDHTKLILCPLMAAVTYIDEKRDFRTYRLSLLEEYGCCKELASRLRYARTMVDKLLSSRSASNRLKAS
Chain of broad panel of kinases (Homo sapiens, UniProt P49840) (P49840 2-483 limits assumed): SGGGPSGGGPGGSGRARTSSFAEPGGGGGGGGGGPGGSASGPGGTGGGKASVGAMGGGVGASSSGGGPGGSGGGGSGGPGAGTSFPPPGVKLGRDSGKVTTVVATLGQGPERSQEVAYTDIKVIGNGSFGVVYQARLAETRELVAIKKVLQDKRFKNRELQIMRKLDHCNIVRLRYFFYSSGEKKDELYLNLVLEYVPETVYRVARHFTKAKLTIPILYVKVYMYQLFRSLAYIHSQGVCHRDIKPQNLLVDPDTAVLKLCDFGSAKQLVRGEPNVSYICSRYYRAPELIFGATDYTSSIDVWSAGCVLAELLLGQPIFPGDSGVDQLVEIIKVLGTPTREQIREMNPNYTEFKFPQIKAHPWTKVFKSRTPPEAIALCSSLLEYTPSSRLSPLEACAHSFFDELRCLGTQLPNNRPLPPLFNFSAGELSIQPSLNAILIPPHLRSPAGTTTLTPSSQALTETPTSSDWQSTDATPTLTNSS
Chain of broad panel of kinases (Homo sapiens, UniProt Q13557) (Q13557 2-499 limits assumed): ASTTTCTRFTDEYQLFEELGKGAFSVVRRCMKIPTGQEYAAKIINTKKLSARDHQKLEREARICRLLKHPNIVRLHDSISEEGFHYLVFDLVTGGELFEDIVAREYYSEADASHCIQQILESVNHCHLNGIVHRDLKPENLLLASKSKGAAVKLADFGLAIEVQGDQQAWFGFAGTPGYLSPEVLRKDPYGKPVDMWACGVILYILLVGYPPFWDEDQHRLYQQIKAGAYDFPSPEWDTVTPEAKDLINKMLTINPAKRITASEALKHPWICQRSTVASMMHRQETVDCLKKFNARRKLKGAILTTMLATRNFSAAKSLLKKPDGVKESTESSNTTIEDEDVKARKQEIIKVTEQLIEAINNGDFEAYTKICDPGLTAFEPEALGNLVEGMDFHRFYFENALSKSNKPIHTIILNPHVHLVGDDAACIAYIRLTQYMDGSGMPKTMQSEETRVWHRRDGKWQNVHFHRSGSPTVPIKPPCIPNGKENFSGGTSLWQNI

C=CC(=O)N1CC[C@H](Nc2nc(CN3CCOCC3)cc(Nc3ncc(C(=O)Nc4c(C)cccc4C)s3)n2)C1 [Example I-2]
percent of control binding remaining (lower = stronger binding) (broad panel of kinases [1]): 88%
percent of control binding remaining (lower = stronger binding) (broad panel of kinases [2]): 73%
percent of control binding remaining (lower = stronger binding) (broad panel of kinases [3]): 96%
percent of control binding remaining (lower = stronger binding) (broad panel of kinases [4]): 100%
percent of control binding remaining (lower = stronger binding) (broad panel of kinases [5]): 94%
percent of control binding remaining (lower = stronger binding) (broad panel of kinases [6]): 100%
percent of control binding remaining (lower = stronger binding) (broad panel of kinases [7]): 89%
percent of control binding remaining (lower = stronger binding) (broad panel of kinases [8]): 62%
percent of control binding remaining (lower = stronger binding) (broad panel of kinases [9]): 91%
percent of control binding remaining (lower = stronger binding) (broad panel of kinases [10]): 85%
percent of control binding remaining (lower = stronger binding) (broad panel of kinases [11]): 73%
percent of control binding remaining (lower = stronger binding) (broad panel of kinases [12]): 100%
percent of control binding remaining (lower = stronger binding) (broad panel of kinases [13]): 75%
percent of control binding remaining (lower = stronger binding) (broad panel of kinases [14]): 99%
percent of control binding remaining (lower = stronger binding) (broad panel of kinases [15]): 100%
percent of control binding remaining (lower = stronger binding) (broad panel of kinases [16]): 100%
percent of control binding remaining (lower = stronger binding) (broad panel of kinases [17]): 100%
percent of control binding remaining (lower = stronger binding) (broad panel of kinases [18]): 97%
percent of control binding remaining (lower = stronger binding) (broad panel of kinases [19]): 100%
percent of control binding remaining (lower = stronger binding) (broad panel of kinases [20]): 92%
percent of control binding remaining (lower = stronger binding) (broad panel of kinases [21]): 97%
percent of control binding remaining (lower = stronger binding) (broad panel of kinases [22]): 93%
percent of control binding remaining (lower = stronger binding) (broad panel of kinases [23]): 99%
percent of control binding remaining (lower = stronger binding) (broad panel of kinases [24]): 84%
percent of control binding remaining (lower = stronger binding) (broad panel of kinases [25]): 96%
% change compared to control (broad panel of kinases [26]): 100%
percent of control binding remaining (lower = stronger binding) (broad panel of kinases [27]): 99%
percent of control binding remaining (lower = stronger binding) (broad panel of kinases [28]): 100%
percent of control binding remaining (lower = stronger binding) (broad panel of kinases [29]): 97%
percent of control binding remaining (lower = stronger binding) (broad panel of kinases [30]): 52%
percent of control binding remaining (lower = stronger binding) (broad panel of kinases [31]): 92%
percent of control binding remaining (lower = stronger binding) (broad panel of kinases [32]): 100%
percent of control binding remaining (lower = stronger binding) (broad panel of kinases [33]): 92%
percent of control binding remaining (lower = stronger binding) (broad panel of kinases [34]): 48%
percent of control binding remaining (lower = stronger binding) (broad panel of kinases [35]): 98%
% change compared to control (broad panel of kinases [36]): 100%
percent of control binding remaining (lower = stronger binding) (broad panel of kinases [37]): 92%

C=CC(=O)N1CC[C@H](Nc2nccc(Nc3ncc(C(=O)Nc4c(C)cccc4C)s3)n2)C1 [Example I-3]
percent of control binding remaining (lower = stronger binding) (broad panel of kinases [1]): 78%
percent of control binding remaining (lower = stronger binding) (broad panel of kinases [2]): 100%
percent of control binding remaining (lower = stronger binding) (broad panel of kinases [3]): 94%
percent of control binding remaining (lower = stronger binding) (broad panel of kinases [4]): 85%
percent of control binding remaining (lower = stronger binding) (broad panel of kinases [5]): 95%
% change compared to control (broad panel of kinases [6]): 100%
percent of control binding remaining (lower = stronger binding) (broad panel of kinases [7]): 92%
percent of control binding remaining (lower = stronger binding) (broad panel of kinases [8]): 63%
percent of control binding remaining (lower = stronger binding) (broad panel of kinases [9]): 92%
percent of control binding remaining (lower = stronger binding) (broad panel of kinases [10]): 85%
percent of control binding remaining (lower = stronger binding) (broad panel of kinases [11]): 82%
percent of control binding remaining (lower = stronger binding) (broad panel of kinases [12]): 100%
percent of control binding remaining (lower = stronger binding) (broad panel of kinases [13]): 51%
percent of control binding remaining (lower = stronger binding) (broad panel of kinases [14]): 100%
percent of control binding remaining (lower = stronger binding) (broad panel of kinases [15]): 100%
percent of control binding remaining (lower = stronger binding) (broad panel of kinases [16]): 96%
percent of control binding remaining (lower = stronger binding) (broad panel of kinases [17]): 97%
percent of control binding remaining (lower = stronger binding) (broad panel of kinases [18]): 89%
percent of control binding remaining (lower = stronger binding) (broad panel of kinases [19]): 98%
percent of control binding remaining (lower = stronger binding) (broad panel of kinases [20]): 83%
percent of control binding remaining (lower = stronger binding) (broad panel of kinases [21]): 95%
percent of control binding remaining (lower = stronger binding) (broad panel of kinases [22]): 98%
percent of control binding remaining (lower = stronger binding) (broad panel of kinases [23]): 100%
percent of control binding remaining (lower = stronger binding) (broad panel of kinases [24]): 93%
% change compared to control (broad panel of kinases [25]): 76%
% change compared to control (broad panel of kinases [26]): 100%
percent of control binding remaining (lower = stronger binding) (broad panel of kinases [27]): 65%
percent of control binding remaining (lower = stronger binding) (broad panel of kinases [28]): 96%
percent of control binding remaining (lower = stronger binding) (broad panel of kinases [29]): 100%
percent of control binding remaining (lower = stronger binding) (broad panel of kinases [30]): 25%
percent of control binding remaining (lower = stronger binding) (broad panel of kinases [31]): 97%
percent of control binding remaining (lower = stronger binding) (broad panel of kinases [32]): 100%
percent of control binding remaining (lower = stronger binding) (broad panel of kinases [33]): 98%
percent of control binding remaining (lower = stronger binding) (broad panel of kinases [34]): 42%
percent of control binding remaining (lower = stronger binding) (broad panel of kinases [35]): 93%
% change compared to control (broad panel of kinases [36]): 100%
percent of control binding remaining (lower = stronger binding) (broad panel of kinases [37]): 71%
